How the values were obtained:
[1] = tested on: MCF7 cells; experiment: Cell proliferation assay MCF7; format: cell-based; conditions: MCF7 human breast cancer cells; 120 hours; ATPlite 1 Step
Procedure, shortened: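 After 120 h of compound exposure (duplicates, DMSO at most 0.5%) in DMEM GlutaMAX with 10% FBS, ATPlite 1 Step luminescence measured cellular ATP. Compound was added 24 h after seeding, at a density chosen for ~90% confluence at the end.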

[2] = tested on: H3K4me3 mark; experiment: Histone lysine demethylase immunofluorescence assay, non-transfected U2OS cells; format: cell-based; conditions: Homo sapiens, staining of the H3K4me3 mark, 20 hours incubation with compound
Procedure, shortened: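 Non-transfected U2OS cells incubated with compounds 20 h in DMEM/5% FBS. Fixed cells immunostained for H3K4me3 with Hoechst counterstain and imaged by high-throughput microscopy. IC50 based on average cellular H3K4me3 staining.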

[3] = molecular target: T1, KDM2B (FBXL10) (Homo sapiens, UniProt Q8NHM5); experiment: Histone lysine demethylase AlphaLISA assay, KDM2B; format: biochemical; conditions: read-out: KDM2B HDME Inhibition IC50
T1 sequence (Q8NHM5 1-650): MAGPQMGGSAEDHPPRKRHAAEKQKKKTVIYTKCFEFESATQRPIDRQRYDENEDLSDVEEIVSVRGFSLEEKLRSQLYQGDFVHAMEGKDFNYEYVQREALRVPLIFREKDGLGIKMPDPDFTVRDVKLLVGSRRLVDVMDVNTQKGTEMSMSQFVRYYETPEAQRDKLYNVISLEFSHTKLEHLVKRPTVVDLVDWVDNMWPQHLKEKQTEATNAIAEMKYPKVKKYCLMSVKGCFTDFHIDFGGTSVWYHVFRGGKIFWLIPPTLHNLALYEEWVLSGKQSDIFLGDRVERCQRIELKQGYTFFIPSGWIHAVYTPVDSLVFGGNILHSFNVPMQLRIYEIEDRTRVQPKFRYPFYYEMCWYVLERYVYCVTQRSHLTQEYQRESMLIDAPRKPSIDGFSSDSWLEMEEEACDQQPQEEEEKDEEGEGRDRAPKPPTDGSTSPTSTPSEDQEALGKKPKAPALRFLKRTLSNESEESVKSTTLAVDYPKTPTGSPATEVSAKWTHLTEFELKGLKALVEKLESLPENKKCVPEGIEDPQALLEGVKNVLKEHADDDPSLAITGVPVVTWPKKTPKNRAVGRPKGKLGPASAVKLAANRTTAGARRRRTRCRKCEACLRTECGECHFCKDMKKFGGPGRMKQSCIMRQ
Procedure, shortened: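 Steps: enzyme equilibrated 10 min in buffer; compounds in 3% DMSO solution added, 10 min; substrate mix added (peptide, 25 μM L-Asc, 10 μM α-KG), room temperature; acceptor beads, then streptavidin donor beads, dark incubations; plate read.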

SMILES	EC50 [1] [nM]	IC50 [2] [nM]	IC50 [3] [nM]
CN(C)C/C=C/CNCc1cc(/C=N/C2CC2)ccn1 [Compound 43, N-{[2-({[(2E)-4-(dimethylamino)but-2-en-1-yl]amino}-methyl)pyridin-4-yl]methylidene}-cyclopropanamine]	< 250	< 250	> 2500
C(=N\C1CC1)/c1ccnc(CNCCCCN2CCC2)c1 [Compound 44, N-{[2-({[4-(azetidin-1-yl)butyl]amino}methyl)-pyridin-4-yl]methylidene}-cyclopropanamine]	< 250	< 250	> 2500
CN(C)CC1CCC(CNCc2cc(/C=N/C3CC3)ccn2)CC1 (stereo not drawn) [Compound 46, N-[(2-{[({4-[(dimethylamino)-methyl]cyclohexyl}-methyl)amino]-methyl}pyridin-4-yl)methylidene]-cyclopropanamine]	< 250	< 250	> 2500
CCN(CC)C(=O)CNCc1cc(/C=N/CCC2CCCCC2)ccn1 [Compound 57, 2-[({4-[[(2-cyclohexylethyl)imino]-methyl]pyridin-2-yl}methyl)amino]-N,N-diethylacetamide]	> 2500	250 to 2500	250 to 2500
CCCCCCCC/N=C/c1ccnc(CNCC(=O)N(CC)CC)c1 [Compound 58, N,N-diethyl-2-[({4-[(octylimino)methyl]-pyridin-2-yl}methyl)amino]-acetamide]	> 2500	> 2500	250 to 2500
CCN(CC)CCCCNCc1cc(/C=N/CCO)ccn1 [Compound 61, 2-[{[2-({[4-(diethylamino)-butyl]amino}-methyl)pyridin-4-yl]methylidene}-amino]ethan-1-ol]	< 250	< 250	> 2500
CCN(CC)CCCCNCc1cc(/C=N/CC(F)(F)C(F)(F)F)ccn1 [Compound 62, {[2-({[4-(diethylamino)-butyl]amino}methyl)pyridin-4-yl]methylidene} (2,2,3,3,3-pentafluoropropyl)-amine]	< 250	< 250	> 2500
CON=Cc1ccnc(CNCCCN(C)C)c1 [Compound 64, [3-(dimethylamino)-propyl]({4-[(methoxyimino)-methyl]pyridin-2-yl}methyl)amine]	> 2500	250 to 2500	> 2500
CCN(CC)CCCCNCc1cc(/C=N\CCC2CCCCC2)ccn1 [Compound 67, (2-cyclohexylethyl)-({[2-({[4-(diethylamino)-butyl]amino}methyl)pyridin-4-yl]methylidene})-amine]	< 250	< 250	> 2500
CCN(CCN(C)C)C(=O)CNCc1cc(C2OCC(Cc3ccccc3)CN2C(=O)C(F)(F)F)ccn1 (stereo not drawn) [Compound 90, 2-[({4-[5-benzyl-3-(trifluoroacetyl)-1,3-oxazinan-2-yl]pyridin-2-yl}methyl)amino]-N-[2-(dimethylamino)-ethyl]-N-ethylacetamide]	< 250	< 250	> 2500
CCN(CCN(C)C)C(=O)CNCc1cc(C2OCC3(CC3)CN2C(=O)C(F)(F)F)ccn1 (stereo not drawn) [Compound 91, N-[2--(dimethylamino)-ethyl]-N-ethyl-2-[({4-[7-(trifluoroacetyl)-5-oxa-7-azaspiro[2.5]-octan-6-yl]pyridin-2-yl}methyl)amino]-acetamide]	< 250	< 250	> 2500
CN(C)CC1CCC(CNCc2cc(C=O)ccn2)CC1 (stereo not drawn) [Compound 97, 2-{[({4-[(dimethylamino)-methyl]cyclohexyl}-methyl)amino]-methyl}pyridine-4-carbaldehyde]	250 to 2500	< 250	> 2500
CN(C)C/C=C\CNCc1cc(C=O)ccn1 [Compound 99, 2-({[(2Z)-4-(dimethylamino)-but-2-en-1-yl]amino}methyl)-pyridine-4-carbaldehyde]	> 2500	250 to 2500	> 2500
CN1CCC(CNCc2cc(C=O)ccn2)CC1 [Compound 100, 2-({[(1-methyl-piperidin-4-yl)methyl]amino}-methyl)pyridine-4-carbaldehyde]	< 250	< 250	> 2500
CCN(CCN(C)C)C(=O)CNCc1cc(C=O)ccn1 [Compound 101]	< 250	< 250	> 2500
CCN(CC)CCCCNCc1cc(C=O)ccn1 [Compound 107, 2-({[4-(diethylamino)-butyl]amino}-methyl)pyridine-4-carbaldehyde]	< 250	< 250	> 2500
O=Cc1ccnc(CNCCCN2CCCC2)c1 [Compound 111, 2-({[3-(pyrrolidin-1-yl)propyl]amino}-methyl)pyridine-4-carbaldehyde]	< 250	< 250	> 2500
CCN(CC)CCCCN(Cc1cc(C=O)ccn1)C(=O)C(F)(F)F [Compound 115, N-[4-(diethylamino)butyl]-2,2,2-trifluoro-N-[(4-formylpyridin-2-yl)methyl]acetamide]	< 250	< 250	> 2500
CCN(CC(C)(C)N(C)C)C(=O)CNCc1cc(C=O)ccn1 [Compound 118, N-[2-(dimethylamino)-2-methylpropyl]-N-ethyl-2-{[(4-formylpyridin-2-yl)methyl]amino}-acetamide]	< 250	< 250	> 2500
